One assay concerns the target T1, TYRO3 (Homo sapiens, UniProt Q06418).
T1 construct: purchased Life Technologies
T1 sequence (Q06418 41-890): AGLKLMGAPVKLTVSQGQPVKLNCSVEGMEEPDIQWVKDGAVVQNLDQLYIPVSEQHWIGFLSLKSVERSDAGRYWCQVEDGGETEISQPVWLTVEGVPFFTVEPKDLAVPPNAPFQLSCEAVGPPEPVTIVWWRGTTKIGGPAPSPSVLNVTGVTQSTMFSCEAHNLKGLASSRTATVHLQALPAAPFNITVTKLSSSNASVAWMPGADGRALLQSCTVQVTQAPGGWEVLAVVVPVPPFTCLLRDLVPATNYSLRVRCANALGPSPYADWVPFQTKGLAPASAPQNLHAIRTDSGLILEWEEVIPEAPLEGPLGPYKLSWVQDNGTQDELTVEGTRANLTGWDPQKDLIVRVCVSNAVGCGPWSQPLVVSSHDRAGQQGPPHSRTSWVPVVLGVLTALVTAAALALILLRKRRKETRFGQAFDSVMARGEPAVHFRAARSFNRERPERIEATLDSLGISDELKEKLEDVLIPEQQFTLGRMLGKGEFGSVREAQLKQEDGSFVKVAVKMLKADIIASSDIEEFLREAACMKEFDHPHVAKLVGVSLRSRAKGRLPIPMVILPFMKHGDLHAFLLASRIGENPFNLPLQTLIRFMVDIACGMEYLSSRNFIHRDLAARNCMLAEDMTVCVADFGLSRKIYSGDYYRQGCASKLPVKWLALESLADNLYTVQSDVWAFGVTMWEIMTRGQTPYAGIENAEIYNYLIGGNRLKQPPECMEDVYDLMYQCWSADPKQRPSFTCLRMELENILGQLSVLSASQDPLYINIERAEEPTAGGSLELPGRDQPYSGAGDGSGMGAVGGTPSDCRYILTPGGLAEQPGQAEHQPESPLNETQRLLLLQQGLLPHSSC
Description: LanthaScreen Eu kinase binding assay, TYRO3. Conditions: Tracer 236. (Time-resolved FRET reads energy transfer from a long-lived donor to a nearby acceptor.)

The target in another assay is T2, Mer (Homo sapiens, UniProt Q12866).
T2 construct: purchased Life Technologies
T2 sequence (Q12866 21-999): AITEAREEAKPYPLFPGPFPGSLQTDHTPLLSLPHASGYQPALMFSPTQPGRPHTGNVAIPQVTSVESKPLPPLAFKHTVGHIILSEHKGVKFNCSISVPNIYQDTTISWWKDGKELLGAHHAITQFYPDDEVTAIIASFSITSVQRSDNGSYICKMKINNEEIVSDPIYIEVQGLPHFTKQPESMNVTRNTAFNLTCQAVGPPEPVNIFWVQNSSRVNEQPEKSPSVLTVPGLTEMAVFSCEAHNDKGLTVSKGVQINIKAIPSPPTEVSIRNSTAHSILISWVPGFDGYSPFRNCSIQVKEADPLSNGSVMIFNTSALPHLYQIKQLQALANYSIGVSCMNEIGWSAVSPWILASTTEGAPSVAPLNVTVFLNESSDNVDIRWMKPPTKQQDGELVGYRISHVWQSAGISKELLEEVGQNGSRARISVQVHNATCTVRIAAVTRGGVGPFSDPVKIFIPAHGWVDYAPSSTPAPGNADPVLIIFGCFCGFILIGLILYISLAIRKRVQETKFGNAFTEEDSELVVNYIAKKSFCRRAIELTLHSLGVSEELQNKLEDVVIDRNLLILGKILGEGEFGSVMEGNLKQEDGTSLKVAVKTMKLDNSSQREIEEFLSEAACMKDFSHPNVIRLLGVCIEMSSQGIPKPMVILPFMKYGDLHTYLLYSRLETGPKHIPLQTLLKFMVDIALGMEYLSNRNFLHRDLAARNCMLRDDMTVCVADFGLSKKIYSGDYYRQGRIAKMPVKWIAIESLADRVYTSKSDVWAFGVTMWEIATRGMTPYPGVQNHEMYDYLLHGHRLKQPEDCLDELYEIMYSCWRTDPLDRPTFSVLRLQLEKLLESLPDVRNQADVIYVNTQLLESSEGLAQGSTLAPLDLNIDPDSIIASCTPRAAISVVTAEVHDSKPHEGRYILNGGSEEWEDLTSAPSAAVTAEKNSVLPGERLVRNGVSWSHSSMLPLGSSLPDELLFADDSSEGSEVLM
Briefly: LanthaScreen Eu kinase binding assay, Mer. The settings on record: Tracer 236.

Another assay has as its target T3, Met (Homo sapiens, UniProt P08581).
T3 construct: purchased Life Technologies
Description: LanthaScreen Eu kinase binding assay, Met. Conditions: Tracer 236, read-out: cMet kinase binding activity (Kd).

In the next assay the test system is HCC827/ER cells. Description: WST-1 cell viability assay in erlotinib-resistant cells. Conditions: compound combined with Erlotinib at constant 1:1 ratio, 3 days, FBS 1%.

Results on 14 compounds are retold here after US10934274B2, “Quinoline derivatives as TAM RTK inhibitors” (Qurient Co., Ltd., priority 2015, dated 2021).

For orientation: Kd means the equilibrium constant for the complex coming apart.

T3 sequence (P08581 25-1390): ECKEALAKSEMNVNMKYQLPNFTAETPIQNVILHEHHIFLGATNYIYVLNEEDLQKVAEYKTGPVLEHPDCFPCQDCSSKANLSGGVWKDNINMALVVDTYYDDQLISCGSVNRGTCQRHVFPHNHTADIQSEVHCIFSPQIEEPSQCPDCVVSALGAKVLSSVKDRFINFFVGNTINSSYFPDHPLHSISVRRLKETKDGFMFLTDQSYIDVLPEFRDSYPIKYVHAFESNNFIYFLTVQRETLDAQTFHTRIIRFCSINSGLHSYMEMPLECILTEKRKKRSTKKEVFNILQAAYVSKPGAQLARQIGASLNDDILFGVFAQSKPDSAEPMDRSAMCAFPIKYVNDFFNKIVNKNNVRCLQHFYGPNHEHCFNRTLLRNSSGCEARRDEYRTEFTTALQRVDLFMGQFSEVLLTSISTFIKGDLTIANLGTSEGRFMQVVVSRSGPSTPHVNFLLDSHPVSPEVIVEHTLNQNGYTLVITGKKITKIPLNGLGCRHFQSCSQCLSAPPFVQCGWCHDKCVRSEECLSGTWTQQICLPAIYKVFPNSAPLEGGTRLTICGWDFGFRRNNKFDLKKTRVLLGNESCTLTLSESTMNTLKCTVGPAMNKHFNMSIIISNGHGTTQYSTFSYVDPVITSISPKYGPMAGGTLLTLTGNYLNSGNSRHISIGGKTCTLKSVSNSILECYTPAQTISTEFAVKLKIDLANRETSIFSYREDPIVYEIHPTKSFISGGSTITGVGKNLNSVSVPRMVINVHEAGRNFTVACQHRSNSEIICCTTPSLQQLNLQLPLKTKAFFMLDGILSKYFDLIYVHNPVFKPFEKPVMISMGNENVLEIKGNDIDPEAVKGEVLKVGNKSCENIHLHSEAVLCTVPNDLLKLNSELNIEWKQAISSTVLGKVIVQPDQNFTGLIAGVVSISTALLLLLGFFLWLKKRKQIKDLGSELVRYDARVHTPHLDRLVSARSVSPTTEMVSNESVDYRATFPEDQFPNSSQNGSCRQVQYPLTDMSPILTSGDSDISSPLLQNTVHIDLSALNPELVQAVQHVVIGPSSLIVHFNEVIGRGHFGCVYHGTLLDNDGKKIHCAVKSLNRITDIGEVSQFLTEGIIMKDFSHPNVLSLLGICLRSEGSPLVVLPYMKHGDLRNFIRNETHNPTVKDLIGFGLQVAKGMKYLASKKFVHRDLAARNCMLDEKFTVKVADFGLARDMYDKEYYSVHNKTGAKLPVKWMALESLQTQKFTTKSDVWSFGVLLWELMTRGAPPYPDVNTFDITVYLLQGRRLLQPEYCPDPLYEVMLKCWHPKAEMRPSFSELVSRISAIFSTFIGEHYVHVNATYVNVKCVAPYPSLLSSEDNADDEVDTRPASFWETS
Description for HCC827/ER cells: The killed cells were discarded and the remaining cells were cultured in a drug-free medium up to 80% confluence. Subsequently, cells were continuously exposed to increasing drug doses of up to 10 μM over a period of 8 months.
HCC827/ER cells were seeded in a 96-well plate with their respective media containing 10% FBS at 5000 cells/well. After seeding, the HCC827/ER cells were incubated for approximately 24 hours. […] The viability of the HCC827/ER cells was determined by adding WST-1 reagent according to Manufacturer's instructions (DoGenbio co., Ltd) and incubating for four hours. The plates were then read using an absorbance of 440 nm on Tecan Microplate reader (Infinite M200 pro, TECAN). The HCC827/ER cells' viability were calculated relative to vehicle (DMSO) control wells.

For `CCOc1cn(C2CCCC2)nc1C(=O)Nc1ccc(Oc2ccnc3cc(OC)c(OC)cc23)cn1` [Compound 3], the Kd on TYRO3, on Mer and on Met was less than 100 nM each time.

For `CCOc1cn(-c2ccccn2)nc1C(=O)Nc1ccc(Oc2ccnc3cc(OC)c(OC)cc23)cn1` [Compound 4], the Kd at TYRO3 is 100 to 1000 nM; at Mer, less than 100 nM; on Met it was less than 100 nM.

`CCOc1cn(-c2cccnn2)nc1C(=O)Nc1ccc(Oc2ccnc3cc(OC)c(OC)cc23)cn1` [Compound 5]: the Kd on TYRO3, on Mer and on Met was less than 100 nM in each case.

As for `CCOc1cn(C2CCOC2)nc1C(=O)Nc1ccc(Oc2ccnc3cc(OC)c(OC)cc23)cn1` (stereo not shown) [Compound 76], the figures for the Kd on TYRO3, at Mer and at Met were less than 100 nM, less than 100 nM and 100 to 1000 nM, respectively.

For `CCOc1cn(-c2cnccc2C)nc1C(=O)Nc1ccc(Oc2ccnc3cc(OC)c(OC)cc23)cn1` [Compound 79], the “Combination effect of compound and erlotinib on inhibition activity in Erlotinib-resistant cell-line” value in the assay with HCC827/ER cells is recorded as “synergistic effect”. Moreover, the Kd at TYRO3, on Mer and at Met was less than 100 nM throughout.

Take `CCOc1cn(CCC#N)nc1C(=O)Nc1ccc(Oc2ccnc3cc(OC)c(OC)cc23)cn1` [Compound 80]: the figures for the equilibrium dissociation constant (Kd) on TYRO3, on Mer and at Met were 100 to 1000 nM, less than 100 nM and 100 to 1000 nM, respectively.

In the case of `CCOc1cn(C(C)CC#N)nc1C(=O)Nc1ccc(Oc2ccnc3cc(OC)c(OC)cc23)cn1` (stereo not shown) [Compound 81], the values for the Kd on TYRO3, at Mer and on Met were 100 to 1000 nM, less than 100 nM and 100 to 1000 nM, respectively.

On to `CCOc1cn(-c2ccc(F)cc2C)nc1C(=O)Nc1ccc(Oc2ccnc3cc(OC)c(OC)cc23)c(Cl)c1` [Compound 82], for which the Kd on TYRO3, on Mer and on Met was less than 100 nM in each case.

As to `CCOc1cn(-c2cccnc2)nc1C(=O)Nc1ccc(Oc2ccnc3cc(OC)c(OC)cc23)cc1F` [Compound 85], the Kd on TYRO3 is 100 to 1000 nM; at Mer, less than 100 nM; on Met, less than 100 nM.

Take `CCOc1cn(CCOC(F)F)nc1C(=O)Nc1ccc(Oc2ccnc3cc(OC)c(OC)cc23)cn1` [Compound 86]: the results for the Kd on TYRO3, at Mer and at Met were 100 to 1000 nM, less than 100 nM and less than 100 nM, respectively.

For `CCOc1cn(-c2ccc(Cl)cc2C)nc1C(=O)Nc1ccc(Oc2ccnc3cc(OC)c(OC)cc23)cn1` [Compound 87], the Kd on TYRO3, on Mer and on Met was less than 100 nM each time.

As for `CCOc1cn(-c2ccc(F)cc2)nc1C(=O)Nc1ccc(Oc2ccnc3cc(OC)c(OC)cc23)cn1` [Compound 89], the Kd on TYRO3, on Mer and at Met was less than 100 nM in each case.

For `CCOc1cn(-c2c(C)cc(OC)cc2C)nc1C(=O)Nc1ccc(Oc2ccnc3cc(OC)c(OC)cc23)cn1` [Compound 92], the Kd at TYRO3, on Mer and at Met was less than 100 nM throughout.

Consider `CCOc1cn(-c2ncc(N)cn2)nc1C(=O)Nc1ccc(Oc2ccnc3cc(OC)c(OC)cc23)cn1` [Compound 93], for which the Kd on TYRO3 is 100 to 1000 nM; on Mer, less than 100 nM; at Met it was less than 100 nM.
